Experimental data from publication PMC7241120 (2020).

System: Pu19m2 (DNA, G4) AAGGGAGGGCGGCGGGACA
Experiment: thermal melting
Conditions: 50 mM K+; complex ~60 °C, free unimolecular vG4 ~45 °C

In the case of `Nc1nc2c(ncn2[C@H]2C[C@H](O)[C@@H](COP(=O)(O)O)O2)c(=O)[nH]1`, the Tm was ~ 15 °C.
